Test results taken from patent US20240197729A1, “ALK-5 Inhibitors and Uses Thereof” (Sumitomo Pharma Oncology, Inc., priority 2021, published 2024).
Read-outs that look alike come from different tables or passages of the source.

How the values were obtained:
[1] = tested on: BMP-6/ALK2/Hepcidin pathway; assay: ALK2 off-target assay, hepcidin mRNA in HepG2 hepatocytes; type: cell-based, human; details: HepG2, 40 ng/ml BMP-6, 3 h; read-out: IC50, hepcidin mRNA expression
Procedure: In this study, LDN214117 (an ALK2 inhibitor available from Selleck Chemicals S7627) was included as a positive control, and vactosertib (an ALK5 inhibitor available from MedChem Express HY-19928) was included as a negative control.
HepG2 human hepatocytes (ATCC HB-8065) were seeded in EMEM (ATCC30-2003)+10% FBS in 96-well plate and allowed to grow overnight at 5% CO2 at 37° C. The next day, cells were pre-treated with selected compounds (Compound 01, 04 or 05) or one of the control compounds at various concentrations, or with vehicle (DMSO) for one hour. Cells were then stimulated with recombinant human BMP-6 (R&D Systems 507-BP-020) at a final concentration of 40 ng/ml, in the presence of test compound or DMSO for three hours. A no-BMP-6 stimulation condition was included for baseline hepcidin level measurement.
Hepcidin mRNA expression was measured by real-time RT-PCR with Cells-to-CT 1-Step TaqMan Kit (ThermoFisher A25603) following manufacturer's instructions. GAPDH levels were measured, and served as a normalization control. Hepcidin primer: TaqMan HAMP-FAM/MGB 20×(ThermoFisher 4331182); GAPDH primer: TaqMan GAPDH-VIC/MGB 20×(ThermoFisher 4326317E). Delta-delta Ct method was used to obtain relative Hepcidin expression.
The selected compounds and control compounds LDN214117 and vactosertib were tested at drug concentrations of 20 micromolar to 1.22 nanomolar at 4-fold serial dilution. All wells contained the same DMSO concentrations. IC50 values were calculated using nonlinear regression model with GraphPad Prism software. The results of the ALK-2 off-target assay are reported in Table 3B, where “++” indicates 0.1 μM<IC50≤1 μM and “+++” indicates […].

[2] = tested on: phospho-SMAD-2 (Ser465/Ser467); assay: A549 xenograft assay, p-SMAD2; type: in vivo, mice; details: 75 mg/kg per oral gavage, tumors 4 h after dosing
From the text: (§1) To test compounds for inhibition of in vivo on-target activity (ALK5/TGF-bR1 inhibition) as well as potential Janus Kinase (JAK) signaling off-target activity, the A549 murine xenograft model was utilized. An ALK5 inhibitor (e.g., vactosertib) is expected to reduce the amount of the TGF-beta signaling molecule phospho-SMAD-2 (pSMAD2) in the A549 xenograft cells. The TGF-beta-mediated phosphorylation of SMAD2 in A549 cells takes place at amino acid residue four hundred and sixty-five and four hundred and sixty-seven (both are serine residues). A JAK inhibitor (e.g., ruxolitinib) is expected to reduce the phosphorylation of signal transducer and activator of transcription (STAT) proteins such as STAT3 at amino acid residue 705 (tyrosine).
(§2) At eight weeks of age, female athymic nude mice (purchased from Charles River) were injected with approximately 3.5 million A549 cells (ATCC, CCL-185). Specifically, cells were harvested and resuspended in plain RPMI media (no phenol red added) and Matrigel (Corning 356237) at a one to one ratio, and two hundred-microliters were injected into the right hind flank of each mouse. Tumors were measured every three days by caliper and as tumors reached an average of seventy-eighty millimeters cubed, mice were randomized in groups of three. All compounds were resuspended in 1-methyl-2-pyrrolidinone (Sigma 494496) (10%) plus 20% Solutol (Sigma 42966) in water (90%). Vactosertib and ruxolitinib were included as controls as ALK5 signaling inhibitor and JAK signaling inhibitor, respectively. Both controls were given at seventy-five milligrams per kilogram to three mice. The drug suspensions were sonicated for fifteen minutes to generate a fine particle suspension before being given to the mice. Mice were dosed (per oral gavage) with drug at one hundred, seventy-five, fifty, or ten milligrams per kilogram, with three mice per group. A vehicle control group with three mice was used to establish the baseline level of phospho-SMAD-2 in the tumor xenograft.
(§3) Four hours after drug administration, tumors were harvested, snap frozen and stored at negative eighty degrees Celsius until further processing. The phospho-SMAD-2 levels were determined using the Bio-Plex Pro™ Phospho-Smad2 (Ser465/Ser467) Set (BioRad 171V50019M). The phospho STAT3 levels were determined using the bead/antibody set from the MILLIPLEXMAP STAT Cell Signaling Magnetic Bead 5-Plex Kit (Millipore 48-610MAG). Both phospho SMAD-2 levels and phospho STAT3 levels were normalized to ß-Tubulin (MILLIPLEX MAP ß-Tubulin Total Magnetic Bead MAPmate™, Millipore 46-713MAG) or GAPDH (MILLIPLEX MAP GAPDH Total Magnetic Bead MAPmate™, Millipore 46-667MAG) levels from each sample. All analytes were analyzed in a multiplex fashion with the Bio-Plex Pro Cell Signaling Reagent Kit (BioRad 171304006M). Briefly, frozen tumor (fifteen to thirty milligrams) was lysed in 100 μl lysis buffer, processed in bead mill tube, and centrifuged. The resulting lysate was used at 1:50 dilution for the assay according to the manufacturer's instructions. Bead suspension was analyzed using the Luminex system (MAGPIX).

p-STAT3 (Tyr 705) = assay: A549 xenograft assay, p-STAT3; type: in vivo, mice
From the text: as §1, §2, §3

JAK signaling = assay: JAK selectivity assay, HEK blue IL-12 reporter; type: cell-based; details: 12.5 ng/ml IL-12, 24 h
Procedure: The cells were purchased from Invivogen (Catalog Nr: hkb-il12) and maintained according to vendor instructions. On the day of the experiment, cells were harvested by repeated tapping of the flask to shake loose the cells attached to the bottom of the flask. Then, cells were harvested, washed and resuspended in DMEM media supplemented with 10% fetal calf serum. 30 Microliters of cell suspension was seeded into a 384-well tissue culture-coated plate containing approximately 10,000 total cells. […] Using the ECHO “Dose Response” software, the test compound was added in duplicate wells with a 3-fold dilution curve. DMSO was back-filled to normalize the DMSO across all wells. […] After 30 minutes of incubation at room temperature, the optical density was measured at 620 nanometer using the Perkin Elmer Envision plate reader. A color change can be detected at this wavelength when secreted alkaline phosphatase, which is triggered by IL-12 signaling, is present in the supernatant. […]

[3] = tested on: TGF-β1-mediated αSMA expression; assay: Fibroblast to myofibroblast transformation (FMT) assay; details: for IC50: Homo sapiens, Fibroblast
Procedure: (§4) To test the ability of selected compounds to inhibit the TGF-β1-dependent transition of fibroblasts to myofibroblasts in a relevant disease model of IPF, an FMT assay was performed using lung fibroblasts from IPF patients. In this assay, the transition of fibroblasts to myofibroblasts is determined by the expression of the biomarker alpha smooth muscle actin (α-SMA).
(§5) Primary human bronchial fibroblasts derived from IPF patients were seeded on day zero and the media was refreshed on day two. On day five, selected compounds or controls were added at an eight-point concentration response curve starting at 10 μM (semi-log dilutions). Each drug concentration condition was evaluated in biological duplicates. […] Seventy-two hours following TGF-beta addition, the cells were fixed with formaldehyde. High content imaging evaluating cell number using the nuclear stain DAPI as well as the expression of a-SMA was performed. The following controls were run alongside the selected compounds: vactosertib and the approved IPF drug nintedanib (at an eight-point, semi-log curve with 10 μM starting concentration). As a negative control 0.1% DMSO was also used, matching the DMSO concentration in treated wells. The following calculations were used to determine cell number as well as percent inhibition (PIN) of alpha SMA expression:
(§6) • Segmentation and quantification of αSMA immunoreactivity by an HCA algorithm, with density×area (D×A) output • Data normalization of raw αSMA (D×A) to percentage inhibition (PIN) values, on a plate-to-plate basis
(§7) • DAPI fluorescence applied for HCA-based quantification of the number of imaged cells, on a plate-to-plate basis
(§8) [formula] • μn is the average numbers of nuclei of the vehicle control (TGF-β1+0.1% DMSO) • Xi is the compound number of nuclei

[4] = tested on: TGF-β1-mediated αSMA expression; details: human, 73 h
Procedure: as §4, §5, §6, §7, §8

Work on `COc1cc(-c2cc(-c3ccc(N4CCNCC4)cc3)cnc2C)cc(OC)c1OC` [LDN214117, reference compound] yielded an IC50 [1] of 100 to 1000 nM.
With `N#CC[C@H](C1CCCC1)n1cc(-c2ncnc3[nH]ccc23)cn1` [Ruxolitinib, ruxolitinib, reference compound] the “Average % p-SMAD2 (Ser 465/467) of vehicle” value [2] was 120%, the “Average % p-STAT3 (Tyr 705) of vehicle” value (p-STAT3 (Tyr 705); 75 mg/kg per oral gavage, tumors 4 h after dosing) was 10% and the “inhibition of the phosphorylation of STAT3 in tumor samples” value (p-STAT3 (Tyr 705); 75 milligrams per kilogram) was 90%. It also gave an IC50 (JAK signaling) of 31 nM.
In the case of `COC(=O)c1ccc2c(c1)NC(=O)/C2=C(\Nc1ccc(N(C)C(=O)CN2CCN(C)CC2)cc1)c1ccccc1` [Nintedanib, nintedanib, reference compound], the IC50 ([3]; read-out: Average IC50 (nM), average of donors IPF03, IPF06, IPF08) is reported as 833 nM, the IC50 ([3]; read-out: IC50 αSMA, donor IPF03) is reported as 600 nM and the IC50 ([3]; read-out: IC50 αSMA, donor IPF06) is reported as 1500 nM. It also gave an IC50 ([3]; read-out: IC50 αSMA, donor IPF08) of 400 nM, an IC50 ([3]; read-out: pIC50 αSMA, donor IPF03 (converted)) of 631 nM and an IC50 ([3]; read-out: pIC50 αSMA, donor IPF06 (converted)) of 1580 nM. For the same compound, the IC50 ([3]; read-out: pIC50 αSMA, donor IPF08 (converted)) was 398 nM, the “Max PIN (%)” value ([3]; donor IPF03) was 90% and the “Max PIN (%)” value ([3]; donor IPF06) was 104%. The “Max PIN (%)” value ([3]; donor IPF08) was 94% and the Potentially toxic concentration [4] was 5.0.
